This is an account of results in patent publication US8178506B2, “Oligomeric compounds and compositions for use in modulation of small non-coding RNAs” (Regulus Therapeutics Inc., priority 2003, dated 2012).

In the oligonucleotide strings, read from the 5' end, every base follows the letter of its sugar. An asterisk marks phosphorothioate; unmarked linkages are phosphodiester. Other units and linkages are bracketed, terminal groups are in braces. A string of capitals states the bases alone. e = 2'-O-(2-methoxyethyl) (MOE); [5mC] = 5-methylcytosine

One data set deals with mir-21 pri-miRNA. Description: mir-21 pri-miRNA expression in HeLa cells (real-time RT-PCR). The data set is classed as cell-based, human. The note with it: HeLa cells, 100 nM, real-time RT-PCR. Here is the method: In one embodiment, the expression of mir-21 (noted to be expressed at high levels in HeLa cells) was assessed in cells treated with oligomeric compounds. Using the transfection methods previously described, HeLa cells were treated with 100 nM of the uniform 2′-MOE oligomeric compound ISIS Number 327917 (SEQ ID NO: 335) targeting the mir-21 mature miRNA. Total RNA was isolated by lysing cells in 1 mL TRIZOL™ (Invitrogen) using the manufacturer's recommended protocols. […] Real-time RT-PCR analysis was also performed on HeLa cells treated with ISIS 327917 using a primer/probe set specific for the mir-21 pri-miRNA molecule [forward primer=ISIS 339332 ([…]; herein incorporated as SEQ ID NO.: 911), reverse primer-ISIS 339333 (TCGACTGGTGTTGCCATGA; herein incorporated as SEQ ID NO.: 912), and probe=ISIS 339334 ([…]; herein incorporated as SEQ ID NO.: 913)]. Total RNA was quantified using RiboGreen™ RNA quantification reagent (Molecular Probes, Inc. Eugene, Oreg.), expression levels observed for the target were normalized to 5.8S rRNA, and values were expressed relative to an untreated control (UTC).
Using the real-time RT-PCR methods, the expression levels of the mir-21 pri-miRNA were compared in HeLa cells treated with this nested series of uniform 2′-MOE oligomeric compounds, targeting and spanning the entire length of the mir-21 pri-miRNA. ISIS Number 358768 (SEQ ID NO: 918) targets a region flanking the predicted 5′ Drosha cleavage site in the mir-21 pri-miRNA. ISIS Number 358777 (SEQ ID NO: 927) targets a region spanning the 3′ Drosha cleavage site in the mir-21 pri-miRNA. ISIS 358779 (SEQ ID NO: 929) targets a region flanking the predicted 3′ Drosha cleavage site in the mir-21 pri-miRNA. Additionally, oligomeric compounds ISIS 327917 (SEQ ID NO: 335), a uniform 2′-MOE compound targeting the mature mir-21 miRNA, and ISIS 345382 ([…]; SEQ ID NO: 335), a 5-10-7 phosphorothioate 2′-MOE gapmer targeting mir-21, were tested for comparison. Oligomeric compound ISIS 327863 ([…]; herein incorporated as SEQ ID NO: 936), a phosphorothioate 5-10-52′-MOE gapmer, was used as scrambled control. […] Total RNA was isolated by lysing cells in 1 mL TRIZOL™ (Invitrogen) using the manufacturer's recommended protocols. real-time RT-PCR analysis was performed using the primer/probe set specific for the mir-21 pri-miRNA molecule [forward primer=ISIS 339332 (SEQ ID NO.: 911), reverse primer-ISIS 339333 (SEQ ID NO.: 912), and probe=ISIS 339334 (SEQ ID NO.: 913)]. Total RNA was quantified using RiboGreen™ RNA quantification reagent (Molecular Probes, Inc. Eugene, Oreg.), expression levels observed for each target were normalized to 5.8S rRNA, and values were expressed relative to the untreated control (UTC). Effects on expression of the mir-21 pri-miRNA molecule resulting from treatment of HeLa cells with these uniform 2′-MOE oligomeric compounds is expressed as a percentage of RNA levels in untreated control cells.
(In general: Quantitative PCR measures a nucleic acid by following its amplification.)
With “358769 (eG*eA*eT*eA*eA*eG*e[5mC]*eT*eA*e[5mC]*e[5mC]*e[5mC]*eG*eA*e[5mC]*eA*eA*eG*eG*eT; antisense) [compound 358769]”, the “mir-21 pri-miRNA expression % UTC” value is reported as 265 % UTC.

Take “358766 (eG*eG*eT*eA*eG*eG*e[5mC]*eA*eA*eA*eA*e[5mC]*eA*eA*eG*e[5mC]*eA*eG*eA*e[5mC]; antisense) [compound 358766]”: the “mir-21 pri-miRNA expression % UTC” value is 142 % UTC.

As to “358778 (antisense eG*eA*eT*eA*e[5mC]*e[5mC]*eA*eA*eA*eA*eT*eG*eT*e[5mC]*eA*eG*eA*e[5mC]*eA*eG) [compound 358778]”, the “mir-21 pri-miRNA expression % UTC” value was 503 % UTC.

As for “358765 (eA*e[5mC]*eA*eA*eG*e[5mC]*eA*eG*eA*e[5mC]*eA*eG*eT*e[5mC]*eA*eG*eG*e[5mC]*eA*eG; antisense) [compound 358765]”, the “mir-21 pri-miRNA expression % UTC” value came out at 133 % UTC.

Take “358772 (eG*eA*eG*eA*eT*eT*e[5mC]*eA*eA*e[5mC]*eA*eG*eT*e[5mC]*eA*eA*e[5mC]*eA*eT*e[5mC]; antisense) [compound 358772]”: the “mir-21 pri-miRNA expression % UTC” value came out at 245 % UTC.

The same data set, now with this note: HeLa, 100 nM.
“ISIS 358778: uniform 2′-MOE PS; targets mir-21 pri-miRNA (antisense eG*eA*eT*eA*e[5mC]*e[5mC]*eA*eA*eA*eA*eT*eG*eT*e[5mC]*eA*eG*eA*e[5mC]*eA*eG)”: the “levels of the mir-21 pri-miRNA molecule” value is “stimulate an increase in levels of the mir-21 pri-miRNA molecule”.

On to “ISIS 358776: uniform 2′-MOE PS; targets mir-21 pri-miRNA (antisense eT*eG*eT*e[5mC]*eA*eG*eA*e[5mC]*eA*eG*e[5mC]*e[5mC]*e[5mC]*eA*eT*e[5mC]*eG*eA*e[5mC]*eT)”, for which the “levels of the mir-21 pri-miRNA molecule” value is given as “stimulate an increase in levels of the mir-21 pri-miRNA molecule”.

For the substance “ISIS 358772: uniform 2′-MOE PS; targets mir-21 pri-miRNA (antisense eG*eA*eG*eA*eT*eT*e[5mC]*eA*eA*e[5mC]*eA*eG*eT*e[5mC]*eA*eA*e[5mC]*eA*eT*e[5mC])”, the “levels of the mir-21 pri-miRNA molecule” value is reported as “stimulate an increase in levels of the mir-21 pri-miRNA molecule”.
